For 25 compounds, MIC and pest or weed control results are on record in patent publication US8748461B2, “Metalloenzyme inhibitor compounds” (Viamet Pharmaceuticals, Inc., priority 2011, dated 2014).

Values after ≈ are worked out from the molar mass of the structure shown.

Experiment [1] has as its system Septoria tritici (ATCC 26517). The experiment in a line: Minimum Inhibitory Concentration (MIC) vs. Septoria tritici. Format: cell-based. Conditions: Zymoseptoria tritici, ATCC26517, 168 h; 50% reduction in growth of S. tritici; 22° C., seven days; read-out: Septoria Rating (MIC). The gist of the method: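 Growth inhibition of S. tritici by CLSI-based filamentous-fungus microdilution, 2-fold series 16 to 0.016 μg/mL in RPMI-1640/MOPS with 2% DMSO. Inoculum approximately 5×10^4 cfu/mL; plates incubated 22° C, seven days, dark, unshaken.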

Experiment [2] has as its system Puccinia recondita tritici = Puccinia triticina. As to the kind of experiment: Fungicidal activity vs. leaf rust on wheat plants. To be noted: 50 ppm spray on wheat (Yuma), inoculated the following day, evaluated 7-9 days later; read-out: Puccinia Rating (% Disease Control @ 50 ppm). Format: in vivo. The gist of the method: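 Wheat seedlings were sprayed to wetness with compound at 50 ppm in 10% acetone/Triton X100 water, at about 1500 L/ha. They were inoculated with P. recondita tritici spores the following day and held overnight at high humidity before greenhouse growth. Disease severity was rated 7-9 days later on a rating scale.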

The MIC is the smallest concentration in the dilution series that meets the test's criterion for growth inhibition. For `OC(Cn1cnnn1)(c1ccc(F)cc1F)C(F)(F)c1ccc(OCc2ccc(OC(F)(F)F)cc2)cn1` (centres unmarked) [Compound 21, 2-(2,4-Difluorophenyl)-1,1-difluoro-3-(1H-tetrazol-1-yl)-1-(5-((4-(trifluoromethoxy)benzyl)oxy)pyridin-2-yl)propan-2-ol], the MIC in experiment [1] is not above 0.5 µg/mL. Moreover, the pest or weed control at 50 ppm in experiment [2] is 80 to 100%.

With `OC(Cn1cnnn1)(c1ccc(F)cc1F)C(F)(F)c1ccc(OCc2ccccc2F)cn1` (centres unmarked) [Compound 46, 2-(2,4-Difluorophenyl)-1,1-difluoro-1-(5-((2-fluorobenzyl)oxy)pyridin-2-yl)-3-(1H-tetrazol-1-yl)propan-2-ol], the MIC in experiment [1] is not above 0.5 µg/mL. Further, in experiment [2], the pest or weed control at 50 ppm was in the range of 80 to 100%.

Turning to `N#Cc1ccc(COc2ccc(C(F)(F)C(O)(Cn3cnnn3)c3ccc(F)cc3F)nc2)nc1` (centres unmarked) [Compound 50, 6-(((6-(2-(2,4-Difluorophenyl)-1,1-difluoro-2-hydroxy-3-(1H-tetrazol-1-yl)propyl)pyridin-3-yl)oxy)methyl)nicotinonitrile], the MIC in experiment [1] was not above 0.5 µg/mL. The pest or weed control at 50 ppm in experiment [2] is 80 to 100%.

As to `OC(Cn1cnnn1)(c1ccc(F)cc1F)C(F)(F)c1ccc(OCc2ccc(C(F)(F)F)cn2)cn1` (centres unmarked) [Compound 114, 2-(2,4-difluorophenyl)-1,1-difluoro-3-(1H-tetrazol-1-yl)-1-(5-((5-(trifluoromethyl)pyridin-2-yl)methoxy)pyridin-2-yl)propan-2-ol], in experiment [1], the MIC was not above 0.5 µg/mL. In addition, the pest or weed control at 50 ppm in experiment [2] was in the range of 80 to 100%.

Take `N#Cc1cnc(Oc2ccc(C(F)(F)C(O)(Cn3cnnn3)c3ccc(F)cc3F)nc2)s1` (centres unmarked) [Compound 107, 2-((6-(2-(2,4-difluorophenyl)-1,1-difluoro-2-hydroxy-3-(1H-tetrazol-1-yl)propyl)pyridin-3-yl)oxy)thiazole-5-carbonitrile]: the MIC in experiment [1] is not above 0.5 µg/mL. Further, the pest or weed control at 50 ppm in experiment [2] was less than 40%.

For the compound `N#Cc1ccc(Oc2ccc(C(F)(F)C(O)(Cn3cnnn3)c3ccc(F)cc3F)nc2)nc1` (centres unmarked) [Compound 93, 6-((6-(2-(2,4-difluorophenyl)-1,1-difluoro-2-hydroxy-3-(1H-tetrazol-1-yl)propyl)pyridin-3-yl)oxy)nicotinonitrile], the MIC in experiment [1] is not above 0.5 µg/mL. The pest or weed control at 50 ppm in experiment [2] is 80 to 100%.

As to `N#Cc1ccc(COc2ccc(C(F)(F)C(O)(Cn3cnnn3)c3ccc(F)cc3F)nc2)cc1F` (centres unmarked) [Compound 10, 4-(((6-(2-(2,4-Difluorophenyl)-1,1-difluoro-2-hydroxy-3-(1H-tetrazol-1-yl)propyl)pyridin-3-yl)oxy)methyl)-2-fluorobenzonitrile], the minimum inhibitory concentration (MIC) in experiment [1] is not above 0.5 µg/mL. Further, the pest or weed control at 50 ppm in experiment [2] was 80 to 100%.

For the compound `OC(Cn1cnnn1)(c1ccc(F)cc1F)C(F)(F)c1ccc(Oc2ncc(Br)cn2)cn1` (centres unmarked) [Compound 99, 1-(5-((5-bromopyrimidin-2-yl)oxy)pyridin-2-yl)-2-(2,4-difluorophenyl)-1,1-difluoro-3-(1H-tetrazol-1-yl)propan-2-ol], in experiment [1], the MIC was not above 0.5 µg/mL. In addition, the pest or weed control at 50 ppm in experiment [2] was in the range of 80 to 100%.

In the case of `OC(Cn1cnnn1)(c1ccc(F)cc1F)C(F)(F)c1ccc(OCC(F)c2ccc(OC(F)F)cc2)cn1` (centres unmarked) [Compound 124, 1-(5-(2-(4-(difluoromethoxy)phenyl)-2-fluoroethoxy)pyridin-2-yl)-2-(2,4-difluorophenyl)-1,1-difluoro-3-(1H-tetrazol-1-yl)propan-2-ol], in experiment [1], the MIC is not above 0.5 µg/mL. In addition, the pest or weed control at 50 ppm in experiment [2] is 80 to 100%.

Regarding `COc1ccc(COc2ccc(C(F)(F)C(O)(Cn3cnnn3)c3ccc(F)cc3F)nc2)cc1` (centres unmarked) [Compound 41, 2-(2,4-Difluorophenyl)-1,1-difluoro-1-(5-((4-methoxybenzyl)oxy)pyridin-2-yl)-3-(1H-tetrazol-1-yl)propan-2-ol], the MIC in experiment [1] is not above 0.5 µg/mL. Further, the pest or weed control at 50 ppm in experiment [2] was in the range of 80 to 100%.

For the compound `O=Cc1ccc(Oc2ccc(C(F)(F)C(O)(Cn3cnnn3)c3ccc(F)cc3F)nc2)nc1` (centres unmarked) [Compound 101, 6-((6-(2-(2,4-difluorophenyl)-1,1-difluoro-2-hydroxy-3-(1H-tetrazol-1-yl)propyl)pyridin-3-yl)oxy)nicotinaldehyde], the MIC in experiment [1] is more than 4 µg/mL. In addition, the pest or weed control at 50 ppm in experiment [2] was less than 40%.

`OC(Cn1cnnn1)(c1ccc(F)cc1F)C(F)(F)c1ccc(Oc2ncc(Cl)cn2)cn1` (centres unmarked) [Compound 98, 1-(5-((5-chloropyrimidin-2-yl)oxy)pyridin-2-yl)-2-(2,4-difluorophenyl)-1,1-difluoro-3-(1H-tetrazol-1-yl)propan-2-ol]: the minimal inhibitory concentration (MIC) in experiment [1] is not above 0.5 µg/mL. Moreover, in experiment [2], the pest or weed control at 50 ppm lay within 80 to 100%.

In the case of `OC(Cn1cnnn1)(c1ccc(F)cc1F)C(F)(F)c1ccc(OCC(F)(F)F)cn1` (centres unmarked) [Compound 12, 2-(2,4-Difluorophenyl)-1,1-difluoro-3-(1H-tetrazol-1-yl)-1-(5-(2,2,2-trifluoroethoxy)pyridin-2-yl)propan-2-ol], in experiment [1], the MIC was not above 0.5 µg/mL. For the same compound, the pest or weed control at 50 ppm in experiment [2] was in the range of 80 to 100%.

Take `N#Cc1ccc(COc2ccc(C(F)(F)C(O)(Cn3cnnn3)c3ccc(Cl)cc3F)nc2)nc1` (centres unmarked) [Compound 61, 6-(((6-(2-(4-Chloro-2-fluorophenyl)-1,1-difluoro-2-hydroxy-3-(1H-tetrazol-1-yl)propyl)pyridin-3-yl)oxy)methyl)nicotinonitrile]: in experiment [1], the MIC was not above 0.5 µg/mL. Also, the pest or weed control at 50 ppm in experiment [2] lay in the range of 80 to 100%.

For the compound `OC(Cn1cnnn1)(c1ccc(F)cc1F)C(F)(F)c1ccc(OCc2ccc(C(F)(F)F)cc2F)cn1` (centres unmarked) [Compound 24, 2-(2,4-Difluorophenyl)-1,1-difluoro-1-(5-((2-fluoro-4-(trifluoromethyl)benzyl)oxy)pyridin-2-yl)-3-(1H-tetrazol-1-yl)propan-2-ol], the minimal inhibitory concentration (MIC) in experiment [1] was not above 0.5 µg/mL. In addition, the pest or weed control at 50 ppm in experiment [2] was in the range of 80 to 100%.

Turning to `OC(Cn1cnnn1)(c1ccc(F)cc1F)C(F)(F)c1ccc(OCC(F)(F)c2ccccc2)cn1` (centres unmarked) [Compound 119, 1-(5-(2,2-difluoro-2-phenylethoxy)pyridin-2-yl)-2-(2,4-difluorophenyl)-1,1-difluoro-3-(1H-tetrazol-1-yl)propan-2-ol], in experiment [1], the MIC is not above 0.5 µg/mL. Moreover, the pest or weed control at 50 ppm in experiment [2] was in the range of 80 to 100%.

For the compound `CC(C)Oc1ccc(C(F)(F)C(O)(Cn2cnnn2)c2ccc(F)cc2F)nc1` (centres unmarked) [Compound 42, 2-(2,4-Difluorophenyl)-1,1-difluoro-1-(5-isopropoxypyridin-2-yl)-3-(1H-tetrazol-1-yl)propan-2-ol], the MIC in experiment [1] fell in the range of 0.5 to 1.5 µg/mL (≈ 1.22 to 3.65 µM). For the same compound, the pest or weed control at 50 ppm in experiment [2] was in the range of 80 to 100%.

On to `OC(Cn1cnnn1)(c1ccc(F)cc1F)C(F)(F)c1ccc(Oc2ccc(/C=N/OCc3ccccc3)cn2)cn1` (centres unmarked) [Compound 103, (E)-6-((6-(2-(2,4-difluorophenyl)-1,1-difluoro-2-hydroxy-3-(1H-tetrazol-1-yl)propyl)pyridin-3-yl)oxy)nicotinaldehyde O-benzyl oxime], for which the minimal inhibitory concentration (MIC) in experiment [1] lay in the range of 0.5 to 1.5 µg/mL (≈ 0.863 to 2.59 µM). The pest or weed control at 50 ppm in experiment [2] lay in the range of 60 to 79%.

As for `COc1ccc(Oc2ccc(C(F)(F)C(O)(Cn3cnnn3)c3ccc(F)cc3F)nc2)cc1` (centres unmarked) [Compound 87, 2-(2,4-Difluorophenyl)-1,1-difluoro-1-(5-(4-methoxyphenoxy)pyridin-2-yl)-3-(1H-tetrazol-1-yl)propan-2-ol], in experiment [1], the MIC is more than 4 µg/mL. Also, the pest or weed control at 50 ppm in experiment [2] lay within 80 to 100%.

Consider `COc1cccc(Oc2ccc(C(F)(F)C(O)(Cn3cnnn3)c3ccc(F)cc3F)nc2)c1` (centres unmarked) [Compound 85, 2-(2,4-Difluorophenyl)-1,1-difluoro-1-(5-(3-methoxyphenoxy)pyridin-2-yl)-3-(1H-tetrazol-1-yl)propan-2-ol], for which the MIC in experiment [1] was not above 0.5 µg/mL. In experiment [2], the pest or weed control at 50 ppm is 80 to 100%.

On to `N#Cc1ccc(C(F)(F)COc2ccc(C(F)(F)C(O)(Cn3cnnn3)c3ccc(F)cc3F)nc2)cc1` (centres unmarked) [Compound 121, 4-(2-((6-(2-(2,4-difluorophenyl)-1,1-difluoro-2-hydroxy-3-(1H-tetrazol-1-yl)propyl)pyridin-3-yl)oxy)-1,1-difluoroethyl)benzonitrile], for which the MIC in experiment [1] was not above 0.5 µg/mL. In addition, the pest or weed control at 50 ppm in experiment [2] was 80 to 100%.

Take `OC(Cn1cnnn1)(c1ccc(F)cc1F)C(F)(F)c1ccc(OCc2ccccn2)cn1` (centres unmarked) [Compound 37, 2-(2,4-Difluorophenyl)-1,1-difluoro-1-(5-(pyridin-2-ylmethoxy)pyridin-2-yl)-3-(1H-tetrazol-1-yl)propan-2-ol]: the MIC in experiment [1] is 0.5 to 1.5 µg/mL (≈ 1.09 to 3.26 µM). In experiment [2], the pest or weed control at 50 ppm lay in the range of 80 to 100%.

As for `OC(Cn1cnnn1)(c1ccc(F)cc1F)C(F)(F)c1ccc(OCc2ccc(C(F)(F)F)cc2)cn1` (centres unmarked) [Compound 22, 2-(2,4-Difluorophenyl)-1,1-difluoro-3-(1H-tetrazol-1-yl)-1-(5-((4-(trifluoromethyl)benzyl)oxy)pyridin-2-yl)propan-2-ol], the MIC in experiment [1] is not above 0.5 µg/mL. The pest or weed control at 50 ppm in experiment [2] was 80 to 100%.

Turning to `N#Cc1ccc(Oc2ccc(C(F)(F)C(O)(Cn3cnnn3)c3ccc(Cl)cc3F)nc2)cc1` (centres unmarked) [Compound 79, 4-((6-(2-(4-Chloro-2-fluorophenyl)-1,1-difluoro-2-hydroxy-3-(1H-tetrazol-1-yl)propyl)pyridin-3-yl)oxy)benzonitrile], the minimum inhibitory concentration (MIC) in experiment [1] is not above 0.5 µg/mL. The pest or weed control at 50 ppm in experiment [2] lay within 80 to 100%.

For the compound `N#Cc1ccc(Oc2ccc(C(F)(F)C(O)(Cn3cnnn3)c3ccc(F)cc3F)nc2)c(F)c1` (centres unmarked) [Compound 89, 4-((6-(2-(2,4-Difluorophenyl)-1,1-difluoro-2-hydroxy-3-(1H-tetrazol-1-yl)propyl)pyridin-3-yl)oxy)-3-fluorobenzonitrile], the MIC in experiment [1] was not above 0.5 µg/mL. The pest or weed control at 50 ppm in experiment [2] was in the range of 80 to 100%.
